Tests used:
[1] = system: MCF-7; experiment: Cancer cell proliferation assay as a single agent (cell viability); type: cell-based; conditions: Homo sapiens, MCF7
Method: (§1) The effects of test compounds were studied in two breast cancer cell lines of different subtype. The cancer cells (Table 3) were harvested during the logarithmic growth period and counted. Cell concentrations were adjusted to the appropriate number with respective medium and 90 μL cell suspensions were added to 96-well plates. After cells were seeded, the plates were shaken gently to distribute cells evenly and incubated at 37° C., 5% CO2 on day 1.
(§2) Cells were treated with test compounds at 7 to 9 concentrations within a desired concentration range (e.g. 1.1 nM-10 μM) on day 2 by series diluting the test compound stock solution (10 mM in DMSO) with culture medium. Treatment duration was 144H (with a medium change at 72H) for both MCF-7 and DU4475 cells. Cell viability was assessed by Cell Titer-Glo® as recommended by Promega (Cat. No.: G7572), or by resazurin assay (Sigma Aldrich, Cat. No.: R7017) post treatment.
(§3) Cell viability data were plotted using GraphPad Prism (GraphPad Software, Inc., San Diego, Calif.). In addition, a nonlinear regression model with a sigmoidal dose response and variable slope within GraphPad Prism was used to calculate the IC50 value of individual test compounds.

[2] = system: DU4475; experiment: as above; type: cell-based; conditions: Homo sapiens, DU-4475; Table 4; Rb negative breast carcinoma; 144H treatment
Method: as §1, §2, §3

[3] = target: T1, CDK6 (Homo sapiens, UniProt Q00534); experiment: In vitro kinase inhibition, luminescence (ADP-Glo) with retinoblastoma as substrate; type: biochemical; conditions: ATP 25 μM, 2H at room temperature
T1 construct: purchased Invitrogen PR8422B
T1 sequence (Q00534 whole entry): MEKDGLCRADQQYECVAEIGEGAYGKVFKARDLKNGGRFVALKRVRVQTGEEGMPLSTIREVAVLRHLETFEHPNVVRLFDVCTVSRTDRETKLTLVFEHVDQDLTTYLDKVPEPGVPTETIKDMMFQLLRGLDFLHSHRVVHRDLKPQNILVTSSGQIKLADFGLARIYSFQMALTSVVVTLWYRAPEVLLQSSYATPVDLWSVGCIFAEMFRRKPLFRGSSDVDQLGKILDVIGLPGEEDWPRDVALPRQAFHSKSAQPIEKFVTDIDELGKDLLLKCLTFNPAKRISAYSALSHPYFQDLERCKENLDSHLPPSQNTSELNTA
T1 sequence (P24385 whole entry partner): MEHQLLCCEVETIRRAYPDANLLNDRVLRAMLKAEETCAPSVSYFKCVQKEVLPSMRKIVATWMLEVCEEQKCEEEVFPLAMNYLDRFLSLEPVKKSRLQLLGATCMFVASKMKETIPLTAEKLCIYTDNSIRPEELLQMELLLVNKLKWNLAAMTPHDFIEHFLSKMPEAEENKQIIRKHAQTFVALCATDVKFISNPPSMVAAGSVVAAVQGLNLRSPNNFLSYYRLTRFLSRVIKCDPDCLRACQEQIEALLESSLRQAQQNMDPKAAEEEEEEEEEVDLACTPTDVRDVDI
Method: (§4) IC50 values of compounds against CDK4 and CDK6 were determined by luminescence using retinoblastoma as substrate. Kinase assays were performed in kinase buffer (#PV6135, Invitrogen, Life Technologies Grand Island. N.Y.) where total reaction volume was […] in 96-well half area white plates (#3693, Costar). One microliter of 25× test compounds at specific concentrations (e.g., final concentration range: 0.1 nM-200 nM) was mixed with 10 μL of 2.5× kinase (5 nM, CDK4 #PR8064 A and CDK6 #PR8422B, Invitrogen) solution and 14 μL of 4× mixed solution with retinoblastoma (1 μM, #12-439, EMD Millipore. Hayward, Calif.) and ATP (25 μM, #V7038, Promega, Madison, Wis.). The plates were covered and incubated for 2H at room temperature. At the end of incubation, 25 μL of stop solution—ADP Glo reagent (#V7002. Promega) was added. After incubation for 45 min at room temperature, 50 μL of detection reagent (##V7002, Promega) was added. Readings were taken at 15 min and 45 min incubation after detection reagent was added in a Synergy Neo Plate reader (BioTek, Winooski, Vt.) at single excitation of 340 nm and Dual emission at 495 nm and 520 nm respectively. The following equations were used in the CDK4 and CDK6 assay data analysis. Percent inhibition (100-% activity) was fitted to the “four-parameter logistic model” in XLfit for determination of IC50 values.
(§5) Percent conversion of enzyme=100−{(RLUNo Drug−No enzyme*100)/RLUNo drug+Enzyme} Equation 1:
(§6) Percent conversion at each data point=100−{(RLUAverage(Drug+enzyme)*100)/RLUNo drug+Enzyme} Equation 2:
(§7) Percent Inhibition=100*(% Conversioneach data point/% ConversionEnzyme) Equation 3: […]

[4] = target: T2, CDK4 (Homo sapiens, UniProt P11802); experiment: as above; type: biochemical; conditions: ATP 25 μM, 2H at room temperature
T2 construct: purchased Invitrogen PR8064 A
T2 sequence (P11802 whole entry): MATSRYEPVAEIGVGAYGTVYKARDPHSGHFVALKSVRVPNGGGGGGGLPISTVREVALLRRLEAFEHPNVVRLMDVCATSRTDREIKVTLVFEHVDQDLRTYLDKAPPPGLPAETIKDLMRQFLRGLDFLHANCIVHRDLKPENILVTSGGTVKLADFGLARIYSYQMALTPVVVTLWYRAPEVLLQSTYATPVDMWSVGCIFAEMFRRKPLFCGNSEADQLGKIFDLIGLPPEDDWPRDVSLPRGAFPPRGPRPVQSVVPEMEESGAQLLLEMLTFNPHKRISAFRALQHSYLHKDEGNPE
T2 sequence (P24385 whole entry partner): as the sequence (P24385 whole entry partner) above
Method: as §4, §5, §6, §7

[5] = target: T3, CDK2 (cyclin A) (Homo sapiens, UniProt P24941); experiment: Z'-LYTE kinase assay; type: biochemical; conditions: ATP 31 μM, 60 minutes
T3 construct: purchased Invitrogen Life Technologies (screening service)
Method: IC50 values of compounds against CDK2 (cyclin A) were determined by Z′-LYTE™. These screening assays were performed at Invitrogen Life Technologies (Grand Island, N.Y.) on a low volume NBS, black 384-well plate (#4514. Corning), 0.1 μL of 100× test compound in 100% DMSO (at specific solutions) was mixed with 2.4 μL of Kinase Buffer (50 mM HEPES pH 7.5, 0.01% BRIJ-35, 10 mM MgCl2, 1 mM EGTA), 5 μL of 2× Kinase (1.22-10.3 ng CDK2/cyclin A)/Peptide (2 μM Ser/Thr 12), and 2.5 μL of 4×ATP solution (31 μM). The plates were shaken for 30 seconds, and incubated for 60 minutes at room temperature. Development Reagent Solution (5 μL of 1:1024 dilution) was added to the plates followed with another 30-second plate shake and the plates were further incubated at room temperature for one hour. The plates were read on fluorescence plate reader with Dual emission at 445 nm and 520 nm.
(§8) The following equations were used for Z′-LYTE™ Screening Assay Data Analysis. Percent inhibition (100-% activity) was fitted to the “four-parameter logistic model” in XLfit for determination of IC50 values.

[6] = target: T4, PI3Kδ (Homo sapiens, UniProt O00329); experiment: PI3Kδ kinase assay (ADP-Glo, Reaction Biology Corporation); type: biochemical
T4 construct: purchased Reaction Biology Corporation (service assay)
T4 sequence (O00329 whole entry): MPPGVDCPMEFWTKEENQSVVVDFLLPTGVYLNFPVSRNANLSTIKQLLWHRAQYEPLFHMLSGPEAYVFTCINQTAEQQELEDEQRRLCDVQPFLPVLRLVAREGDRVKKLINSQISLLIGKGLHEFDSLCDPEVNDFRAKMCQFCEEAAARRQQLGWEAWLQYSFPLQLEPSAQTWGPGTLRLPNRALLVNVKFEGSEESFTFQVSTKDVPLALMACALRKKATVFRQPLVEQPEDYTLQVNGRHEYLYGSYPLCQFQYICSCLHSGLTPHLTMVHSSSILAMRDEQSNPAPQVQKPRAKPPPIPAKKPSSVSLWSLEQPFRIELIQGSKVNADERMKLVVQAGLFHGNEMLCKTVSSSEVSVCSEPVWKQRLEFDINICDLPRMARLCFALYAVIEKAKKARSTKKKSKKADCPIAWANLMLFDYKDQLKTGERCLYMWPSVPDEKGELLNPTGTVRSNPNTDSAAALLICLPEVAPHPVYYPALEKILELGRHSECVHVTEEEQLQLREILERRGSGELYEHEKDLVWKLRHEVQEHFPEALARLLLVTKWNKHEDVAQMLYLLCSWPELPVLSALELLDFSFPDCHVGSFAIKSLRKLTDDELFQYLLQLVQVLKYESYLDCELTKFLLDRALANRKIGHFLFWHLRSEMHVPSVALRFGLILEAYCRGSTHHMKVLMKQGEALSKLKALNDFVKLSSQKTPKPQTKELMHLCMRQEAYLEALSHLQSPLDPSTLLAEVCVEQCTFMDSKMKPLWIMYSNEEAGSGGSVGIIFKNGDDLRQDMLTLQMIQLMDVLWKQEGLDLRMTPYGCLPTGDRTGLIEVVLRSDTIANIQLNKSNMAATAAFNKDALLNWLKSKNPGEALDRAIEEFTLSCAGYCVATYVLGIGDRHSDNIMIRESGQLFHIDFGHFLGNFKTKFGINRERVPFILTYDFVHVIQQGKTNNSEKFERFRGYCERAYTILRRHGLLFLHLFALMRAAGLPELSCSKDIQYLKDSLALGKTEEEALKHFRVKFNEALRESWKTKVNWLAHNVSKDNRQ
T4 sequence (P27986 whole entry partner): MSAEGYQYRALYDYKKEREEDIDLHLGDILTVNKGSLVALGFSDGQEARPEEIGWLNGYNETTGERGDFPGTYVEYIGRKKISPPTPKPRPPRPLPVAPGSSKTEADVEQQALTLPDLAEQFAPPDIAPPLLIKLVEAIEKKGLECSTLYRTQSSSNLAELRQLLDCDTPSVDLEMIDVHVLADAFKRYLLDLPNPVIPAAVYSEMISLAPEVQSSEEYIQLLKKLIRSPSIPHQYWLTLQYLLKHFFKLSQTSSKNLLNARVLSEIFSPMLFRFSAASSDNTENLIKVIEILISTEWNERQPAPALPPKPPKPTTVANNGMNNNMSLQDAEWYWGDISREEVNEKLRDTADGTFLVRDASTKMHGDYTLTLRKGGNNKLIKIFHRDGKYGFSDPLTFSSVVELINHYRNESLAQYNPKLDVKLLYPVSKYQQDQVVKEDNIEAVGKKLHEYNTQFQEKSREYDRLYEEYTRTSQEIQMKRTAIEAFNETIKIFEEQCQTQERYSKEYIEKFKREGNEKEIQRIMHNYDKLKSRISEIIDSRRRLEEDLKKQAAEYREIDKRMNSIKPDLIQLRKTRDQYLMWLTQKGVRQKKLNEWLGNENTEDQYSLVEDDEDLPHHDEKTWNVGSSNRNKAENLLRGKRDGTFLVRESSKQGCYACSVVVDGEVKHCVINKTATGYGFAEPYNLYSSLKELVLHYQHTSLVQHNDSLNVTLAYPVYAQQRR
Method: IC50 values of compounds against the PI3KS kinase were determined by an assay performed by Reaction Biology Corporation (Malvern, Pa.). Briefly, this assay was conducted in buffer (Tris-HCl 40 mM (pH7.5), Orthovanadate 3 mM, MgCl2 20 mM, DTT 2 mM, CHAPS 0.05%, DMSO 1%). PI3K8 kinase was added to the reaction solution and mixed gently. The test compounds in 100% DMSO (at specific solutions) were mixed with the kinase reaction mixture to achieve the final compounds at pre-defined concentrations (e.g., range—0.5 nM to 100 μM) by Acoustic technology (Echo550; nanoliter range). After incubating for 10 min at room temp, ATP was added into the reaction mixture to initiate the reaction followed by a 30-min incubation at 30° C. After quenching the reaction with ADP-Glo reagent, the plates were incubated for 40 min. The Detection Mixture was added, and the plate was incubated for an additional 30 min. At the end of incubation, luminescence was measured. For data analysis, the luminescence was converted into μM ADP production based on ADP standard curves. The nonlinear regression to obtain the standard curve and IC50 values was performed using GraphPad Prism (GraphPad Software. Inc., San Diego, Calif.).

[7] = target: T5, CDK1 (cyclin B) (Homo sapiens, UniProt P06493); experiment: Z'-LYTE kinase assay; type: biochemical; conditions: ATP 34 μM, 60 minutes
T5 construct: purchased Invitrogen Life Technologies (screening service)
T5 sequence (P06493 whole entry): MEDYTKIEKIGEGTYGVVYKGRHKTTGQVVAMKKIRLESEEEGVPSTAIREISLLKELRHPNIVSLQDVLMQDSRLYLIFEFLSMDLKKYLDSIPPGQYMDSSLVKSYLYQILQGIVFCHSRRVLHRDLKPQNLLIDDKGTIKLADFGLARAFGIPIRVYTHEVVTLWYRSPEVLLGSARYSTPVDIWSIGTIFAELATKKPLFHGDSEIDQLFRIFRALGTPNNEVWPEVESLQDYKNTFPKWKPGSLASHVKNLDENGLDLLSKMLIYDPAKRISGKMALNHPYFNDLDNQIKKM
T5 sequence (P14635 whole entry partner): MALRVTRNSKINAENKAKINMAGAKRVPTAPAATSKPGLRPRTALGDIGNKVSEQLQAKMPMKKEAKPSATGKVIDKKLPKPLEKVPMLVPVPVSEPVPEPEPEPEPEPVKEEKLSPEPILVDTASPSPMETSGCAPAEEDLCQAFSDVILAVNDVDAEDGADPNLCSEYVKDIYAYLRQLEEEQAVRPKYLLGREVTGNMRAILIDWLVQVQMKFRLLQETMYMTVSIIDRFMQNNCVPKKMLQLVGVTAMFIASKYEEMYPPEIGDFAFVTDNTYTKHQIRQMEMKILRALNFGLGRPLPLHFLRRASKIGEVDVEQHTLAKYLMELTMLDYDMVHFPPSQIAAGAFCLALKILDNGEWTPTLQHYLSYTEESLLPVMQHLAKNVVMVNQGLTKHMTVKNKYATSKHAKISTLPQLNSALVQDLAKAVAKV
Method: IC50 values of compounds against CDK1 (cyclin B) were determined by Z′-LYTE™. These screening assays were performed at Invitrogen Life Technologies (Grand Island, N.Y.) on a low volume NBS, black 384-well plate (#4514, Corning), 0.1 μL of 100× test compound in 100% DMSO (at specific solutions) was mixed with 2.4 μL of Kinase Buffer (50 mM HEPES pH 7.5, 0.01% BRIJ-35, 10 mM MgCl2, 1 mM EGTA), 5 μL of 2× Kinase (3.5-46.4 ng CDK1/cyclin B)/Peptide (2 μM Ser/Thr 18), and 2.5 μL of 4×ATP solution (34 μM). The plates were shaken for 30 seconds, and incubated for 60 minutes at room temperature. Development Reagent Solution (5 μL of 1:1024 dilution) was added to the plates followed with another 30-second plate shake, and the plates were further incubated at room temperature for one hour. The plates were read on fluorescence plate reader with Dual emission at 445 nm and 520 nm.
as §8

[8] = system: MCF-7-PR; experiment: Cell viability in palbociclib-resistant cell line; type: cell-based
Method: as §2, §3
The effects of test compound in a palbociclib-resistant cell line and a parental, non-resistant cell line were compared. The palbociclib-resistant cell line (“MCF-7-PR”) was derived from the parental, non-resistant cell line (MCF-7 breast adenocarcinoma cells) by culture of cells over a period of three months in increasing concentrations of palbociclib, starting from about 350 nM and ending at about 850 nM, the final concentration at which they were then maintained in culture. […]

[9] = Table 4, Rb positive breast adenocarcinoma, 144H treatment

IC50 [1, 9] [nM] | IC50 [2] [nM] | IC50 [3] [nM] | IC50 [4] [nM] | IC50 [5] [nM] | IC50 [6] [nM] | IC50 [7] [nM] | IC50 ([8]; Table 5, palbociclib-resistant cell line) [nM] | SMILES | IC50 ([1]; Table 5, parental, non-resistant cell line) [nM] | resistance to palbociclib compared to parental MCF-7 cells, as increase in cell viability IC50 ([8]; MCF-7-PR vs MCF-7)
252 | 285 | 53 | 40 |  |  |  |  | CC(C)N1CCOc2c(F)cc(-c3nc(Nc4cccc(N5CCCNCC5)c4)ncc3F)cc21 [Compound 1, N-(3-(1,4-diazepan-1-yl)phenyl)-5-fluoro-4-(8-fluoro-4-isopropyl-3,4-dihydro-2H-benzo[b][1,4]oxazin-6-yl)pyrimidin-2-amine] |  | 
823 | 1640 | > 200 | > 200 | 1230 | > 50000 | 2800 |  | CC(C)N1CCOc2c(F)cc(-c3nc(Nc4cc(N5CCCNCC5)ccn4)ncc3F)cc21 [Compound 2, N-(4-(1,4-diazepan-1-yl)pyridin-2-yl)-5-fluoro-4-(8-fluoro-4-isopropyl-3,4-dihydro-2H-benzo[b][1,4]oxazin-6-yl)pyrimidin-2-amine] |  | 
60 | 655 | 6.5 | 5 | 207 | > 50000 | 1490 |  | CCN1CCC(COc2ccc(Nc3ncc(F)c(-c4cc(F)c5c(c4)N(C(C)C)CCO5)n3)nc2)CC1 [Compound 3, N-(5-((1-ethylpiperidin-4-yl)methoxy)pyridin-2-yl)-5-fluoro-4-(8-fluoro-4-isopropyl-3,4-dihydro-2H-benzo[b][1,4]oxazin-6-yl)pyrimidin-2-amine] |  | 
215 | 275 | 12 | 7 | 75 | > 30200 | 200 |  | CCN1CCC(COc2ccc(Nc3cc(-c4cc(F)c5c(c4)N(C(C)C)CCO5)c(F)cn3)nc2)CC1 [Compound 4, N-(5-((1-ethylpiperidin-4-yl)methoxy)pyridin-2-yl)-5-fluoro-4-(8-fluoro-4-isopropyl-3,4-dihydro-2H-benzo[b][1,4]oxazin-6-yl)pyridin-2-amine] |  | 
525 | 230 | 9 | 2 | < 1 | > 36600 | < 1 |  | CC(C)N1CCOc2c(F)cc(-c3nc(NC4CCN(S(C)(=O)=O)CC4)ncc3F)cc21 [Compound 5, 5-fluoro-4-(8-fluoro-4-isopropyl-3,4-dihydro-2H-benzo[b][1,4]oxazin-6-yl)-N-(1-(methylsulfonyl)piperidin-4-yl)pyrimidin-2-amine] |  | 
80 | 130 | 45 | 16 | 45 |  | 94 | 72 | Cc1nn(C2CCNCC2)cc1Nc1ncc(F)c(-c2cc(F)c3c(c2)N(C(C)C)CCO3)n1 [Compound 67, 5-fluoro-4-(8-fluoro-4-isopropyl-3,4-dihydro-2H-benzo[b][1,4]oxazin-6-yl)-N-(3-methyl-1-(piperidin-4-yl)-1H-pyrazol-4-yl)pyrimidin-2-amine] | 40 | 
392 | 3610 | 26 | 10 | 2470 |  | 4550 |  | CC(C)N1CCOc2c(F)cc(-c3nc(Nc4ccc(N5CCNC(=O)C5)cn4)ncc3F)cc21 [Compound 85, 4-(6-((5-fluoro-4-(8-fluoro-4-isopropyl-3,4-dihydro-2H-benzo[b][1,4]oxazin-6-yl)pyrimidin-2-yl)amino)pyridin-3-yl)piperazin-2-one] |  | 
160 | 1140 | 3 | 1 | 278 |  | 1480 |  | CC(C)N1CCOc2c(F)cc(-c3nc(Nc4ccc(N5CCN(C)C(=O)C5)cn4)ncc3F)cc21 [Compound 86, 4-(6-((5-fluoro-4-(8-fluoro-4-isopropyl-3,4-dihydro-2H-benzo[b][1,4]oxazin-6-yl)pyrimidin-2-yl)amino)pyridin-3-yl)-1-methylpiperazin-2-one] |  | 
 |  |  |  |  |  |  |  | CC(=O)c1c(C)c2cnc(Nc3ccc(N4CCNCC4)cn3)nc2n(C2CCCC2)c1=O [palbociclib, reference compound] |  | at least 5 fold
